Laboratory results taken from publication PMC9814544 (Communications Chemistry, 2020).
≈ marks a conversion by molar mass, not a printed value. Where “and” joins values, the source holds several entries; their conditions need not be identical. Equal values may be shown once. Read-outs that look alike come from different tables or passages of the source.

Key:
[1] = molecular target: T1, LOX129 (LOX-1 129-273) (Homo sapiens, UniProt P78380); test: Isothermal titration calorimetry; format: binding
T1 construct: 6His-tag with thrombin cleavage site (N, cleaved yes); made in house; host or cells: E. coli SHuffle cells (New England BioLabs), pET28a
Method: For additional biophysical profiling of the specific SPR binders, isothermal titration calorimetry (ITC) was used. Due to limited solubility of the compounds, an inverse setup was used by titrating LOX129 into compound solution. The mean Kd value of three independent measurements is 7 µM (Supplementary Table 4).
Isothermal titration calorimetry experiments were conducted on a MicroCal iTC200 instrument (Malvern) using LOX-1 that had been passed through a PD-10 desalting column (GE Healthcare) equilibrated with 20 mM Tris pH 7.3 and 150 mM NaCl. Complete saturation of 35 µM, respectively 40 µM LOX inhibitor was typically achieved by injecting 18× 2 µl aliquots of 300 µM LOX-1 at a temperature of 25 °C. As a control 300 µM LOX-1 was injected in buffer (n = 1, Supplementary Fig. 19).
The thermodynamic binding parameters were extracted by non-linear regression analysis of the binding isotherms (MicroCal PEAQ-ITC Analysis Software). A single-site binding model was applied yielding the binding enthalpy (ΔH), stoichiometry (n), entropy (ΔS) and association constant (Ka). The binding isotherm of protein in buffer control was not subtracted during data evaluation.

[2] = High throughput solubility; format: physicochemical; conditions: for solubility at 24 h: aqueous buffer, kinetic from dmso stock, n = 1
Method: The aqueous solubility of the test compound is determined by comparing the amount dissolved in buffer to the amount in an acetonitrile/water (1/1) solution. Starting from a 10 mM DMSO stock solution aliquots are diluted with acetonitrile/water (1/1) or buffer resp. After 24h of shaking, the solutions are filtrated and analyzed by LC-UV. The amount dissolved in buffer is compared to the amount in the acetonitrile solution. Solubility will usually be measured from 0.001 to 0.125 mg/ml at a DMSO concentration of 2.5%. The solubility at the different pH values for BI-0115 were measured with n = 1.

[3] = molecular target: T1, LOX129 (LOX-1 129-273); test: Surface plasmon resonance, immobilized LOX129; format: binding
Method: To enable surface plasmon resonance spectroscopy (SPR), LOX129 was immobilized on a SPR chip by amine coupling and compounds were analyzed for binding. Based on the individual sensorgrams the compounds were classified as non-binders, over-stoichiometric binders or dose-dependent binders. In total four different structural classes could be confirmed as dose-dependent and stoichiometric binders. […] The mean binding ratio is 0.78 (Supplementary Table 3). Assuming a high percentage of active, binding competent protein on the chip surface, this ratio represents less than one BI-0115 molecule per LOX-1 monomer.
Binding studies were performed using a Biacore T200 instrument (GE Healthcare) at 25 °C in 20 mM HEPES pH 6.8, 150 mM NaCl, 0.05% Tween 20, and 1% DMSO at a flow rate of 30 μL/min. The interaction analyses were performed in the multi-cycle kinetic mode using 120 s association time and 600 s dissociation time at the following LOX-1 inhibitor concentrations 0.391, 0.78, 1.56, 3.125, 6.25, 12.5 and 25 µM. Data were analyzed using the Biacore T200 Evaluation Software 2.0. Due to a transient binding, the KD was determined from a plot of steady state response levels against analyte concentration (affinity plot). The mean KD value was determined from four individual experiments (Supplementary Table 3). The binding ratio is the average number of compound molecules bound per LOX-1 protein on the surface.

ITC thermodynamic driving force ([1]; in words): strong entropic contribution
Kd ([1]; mean of n = 3, 300 µM LOX129 dimer titrated into compound, 25 °C, read-out: ITC Kd): 7 µM and 6.99 µM
ITC N (molar ratio protein:inhibitor) ([1]; stoichiometry, mean of n = 3): 1.8 and 1.77 ±0.34
solubility at 24 h ([2]; pH 4, aqueous buffer, pH4, read-out: Solubility pH4): 1 µg/mL (≈ 3.48 µM)
solubility at 24 h ([2]; pH 7, aqueous buffer, pH7, read-out: Solubility pH7): 1 µg/mL (≈ 3.48 µM)
compound solubility ([2]; in words): low
SPR binding kinetics ([3]; in words): fast binding kinetics
SPR binding ratio ([3]; mean of n = 4, compound molecules bound per LOX-1 protein on the surface): 0.78
Kd ([3]; mean of n = 4, steady-state fit, 25 °C, read-out: SPR Kd): 4.32 µM and 4.3 µM
SPR binding ratio, individual measurements ([3]; measurements 1-4, Supplementary Table 3): 0.79 and 0.84 and 0.73 and 0.77
Kd ([3]; measurements 1-4, Supplementary Table 3, read-out: SPR KD, individual measurements): 3.8 µM and 4.6 µM and 4.12 µM and 4.76 µM
SMILES: CCCN1C(=O)c2ccc(Cl)cc2Nc2ncccc21 [BI-0115]
